Test results reported in patent US11969002B2, “Savoury and mouthfulness taste enhancers” (LUCTA, S.A., priority 2018, dated 2024).

Test system: kokumi and/or umami taste
Experiment: Sensory test: taste threshold in model broth (duo-trio test, sensory panel)
Format: in vivo
Details: for taste quality with the savoury taste threshold in model broth: descriptor in brackets after the threshold value; for minimal effective concentration: duo-trio-test ISO 10399:2017, model broth as constant blank, successive 1:2 dilutions in model broth, panel value averaged over three sessions, read-out: savoury taste threshold in model broth
Excerpt: This sensory test allowed evaluating the capacity of the compounds of formula (IA), (IB), (IC), (ID), (IE), (IF), (IG), (IH) and (IJ) as defined above to enhance taste; particularly kokumi and/or umami taste. This test allowed measuring the taste threshold of the mixtures comprising an amount from 86% to 99% by weight measured by quantitative proton-NMR of a compound of formula (IA), (IB), (IC), (ID), (IE), (IF), (IG), (IH) and (IJ) in model broth. The “taste threshold” refers to the minimum taste stimulus needed to detect the presence of a compound of formula (IA), (IB), (IC), (ID), (IE), (IF), (IG), (IH) and (IJ) of the present invention. The lower the taste threshold, the greater the capacity as enhancer; particularly greater the capacity as kokumi and/or umami enhancer.
Samples • Diluted samples of the mixtures comprising a compound of formula (IA), (IB), (IC), (ID), (IE), (IF), (IG) and (IJ) in an amount from 86% to 99% by weight measured by quantitative proton-NMR with model broth. • Model broth as constant […]. • Diluted samples of comparative samples with model broth: • Comparative compound 1: 5-(aminomethyl)-2-methylpyrimidin-4-amine (Berkshire, United Kingdom) • Comparative compound 2: (4-amino-2-methylpyrimidin-5-yl)methanol (Carbosynth-Berkshire, United Kingdom) • Comparative compound 3: Thiamine (Sigma-Aldrich, Steinheim, Germany)
Model broth: The model broth comprises the following composition: 1.9 g/L of sodium Sodium chloride (Sigma Aldrich, Steinheim, Germany); 1.9 g/L of mono sodium L-glutatmate (Merck, Darmastadt, Germany); 6.4 g/L of Maltodextrin (Sigma Aldrich, Steinheim, Germany); and 2.1 g/L yeast extract (Gistex GSX II, DSM Food specialities Savoury Ingredients; Delft, Netherlands). The model broth is prepared by mixing the ingrediets under agitation in an ultrasonic bath.
Diluted samples of the mixtures comprising a compound of formula (IA), (IB), (IC), (ID), (IE), (IF), (IG), (IH) and (IJ) in an amount from 86% to 99% by weight measured by quantitative proton-NMR of the present invention: The pH value of each individual mixture comprising an amount from 86% to 99% by weight measured by quantitative proton-NMR of a compound of formula (IA), (IB), (IC), (ID), (IE), (IF), (IG), (IH) and (IJ) was adjusted to 5.4 by the addition of the appropriate amount of formic acid. Each individual pH adjusted mixture thus obtained was diluted 1:2 successively with the model broth to obtain diluted solutions of the mixture comprising a compound of formula formula (IA), (IB), (IC), (ID), (IE), (IF), (IG), (IH) and (IJ) in a concentration from 10 μmol/L to 1000 μmol/L measured by quantitative proton-NMR.
Diluted samples of the comparative compounds 1-3. A mixture of each individual comparative compound 1-3 with model broth was prepared by successively dilution 1:2 of each individual comparative compound with model broth to obtain the diluted comparative solutions having a concentration from 10 μmol/L to 1000 μmol/L measured by quantitative proton-NMR of the comparative compound.
The diluted solutions of the present invention and the comparative solutions falling outside the scope of protection of the present invention obtained above were presented to the panelists with increasing concentrations of the tested solutions by means of the duo-trio-test according to ISO 10399:2017; using the model broth as constant blank. The panelists were asked to mark the differing samples.
The taste threshold is calculated by means of the geometric mean. The geometric mean of the last and the second last concentration was calculated and taken as the individual threshold. The threshold value of the sensory panel was approximated by averaging the threshold values of the individuals in three independent sessions. Values between individuals and separate sessions differed not more than two dilution steps (cf. Lawless, Harry T. “Sensory Evaluation of Food”. Springer, 2nd edition, 2010, pp. 125-145)

Structure (SMILES) | taste quality with the savoury taste threshold in model broth | minimal effective concentration [µM]
Cc1ncc(CSC[C@H](N)C(=O)O)c(N)n1 (single isomer, unassigned) [Mixture comprising (IA), S-((4-amino-2-methylpyrimidin-5-yl)methyl)-L-cysteine] | kokumi | 120
CC(=O)C(CCO)SCc1cnc(C)nc1N (single isomer, unassigned) [Mixture comprising (IB), 3-(((4-amino-2-methylpyrimidin-5-yl)methyl)thio)-5-hydroxy-pentan-2-one] | kokumi | 40
Cc1ncc(CSCC(N)C(=O)NCC(=O)O)c(N)n1 (single isomer, unassigned) [Mixture comprising (IC), S-((4-amino-2-methylpyrimidin-5-yl)methyl)cysteinylglycine] | kokumi | 880
Cc1ncc(CSCC2NC(=O)CNC2=O)c(N)n1 (single isomer, unassigned) [Mixture comprising (ID), 3-((((4-amino-2-methylpyrimidin-5-yl)methyl)thio)methyl)piperazine-2,5-dione] | kokumi | 255
CCC(SCc1cnc(C)nc1N)C(C)=O (single isomer, unassigned) [Mixture comprising (IE), 3-(((4-amino-2-methylpyrimidin-5-yl)methyl)thio)pentan-2-one] | kokumi | 35
Cc1ncc(CSc2ccoc2C)c(N)n1 (single isomer, unassigned) [Mixture comprising (IF), 2-methyl-5-(((2-methylfuran-3-yl)thio)methyl)pyrimidin-4-amine] | kokumi | 50
Cc1ncc(CSCc2ccco2)c(N)n1 (single isomer, unassigned) [Mixture comprising (IG), 5-(((furan-2-ylmethyl)thio)methyl)-2-methylpyrimidin-4-amine] | kokumi | 120
CSCc1cnc(C)nc1N (single isomer, unassigned) [Mixture comprising (IH), 2-methyl-5-((methylthio)methyl)pyrimidin-4-amine] | kokumi | 70
Cc1ncc(CS)c(N)n1 (single isomer, unassigned) [Mixture comprising (IJ), (4-amino-2-methylpyrimidin-5-yl)methanethiol] | kokumi | 80
Cc1ncc(CN)c(N)n1 [Comparative compound 1, 5-(aminomethyl)-2-methylpyrimidin-4-amine, reference compound] |  | > 1100
Cc1ncc(CO)c(N)n1 [Comparative compound 2, (4-amino-2-methylpyrimidin-5-yl)methanol, reference compound] | kokumi | 700
Cc1ncc(C[n+]2csc(CCO)c2C)c(N)n1 [Comparative compound 3, Thiamine, reference compound] |  | 1200
